Where two headings read alike, the source gives them in different places.
Assays:
[1] = target: T1, hGCGR (Homo sapiens, UniProt P47871); experiment: Functional cAMP formation (HTRF) in HEK-293 clonal cells expressing hGCGR, 0.1% bovine casein, without or with 1.0% human serum albumin; assay type: cell-based; details: geometric mean, read-out: hGCGR EC50, nM (SEM, n)
T1 construct: expressed in transfected cells
In short: (§1)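 Cells were stimulated with peptide for 30 min at 37° C, then lysed in buffer carrying cAMP-d2 and anti-cAMP Eu3+-cryptate for a competitive HTRF read after at least 60 min at room temperature. The 665/620 nm ratio was converted to nM cAMP against a standard curve.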

[2] = target: hGLP-1R (Homo sapiens, UniProt P43220); experiment: Functional cAMP formation (HTRF) in HEK-293 clonal cells expressing hGLP-1R, 0.1% bovine casein, without or with 1.0% human serum albumin; assay type: cell-based; design: expressed in transfected cells; details: 0.1% bovine casein and 1.0% human serum albumin, 37° C.; geometric mean; read-out: hGLP-1R EC50, nM (SEM, n)
In short: as §1

[3] = target: T2, human GIP receptor (hGIPR) (Homo sapiens, UniProt P48546); experiment: [125I]-GIP binding, SPA with membranes of CHO cells expressing hGIPR; details: human GIPR; geometric mean (SEM, n); read-out: Binding Affinity Ki, nM (SEM, n) hGIPR
T2 construct: expressed in transfected cells; crude membranes
T2 sequence (P48546 22-466): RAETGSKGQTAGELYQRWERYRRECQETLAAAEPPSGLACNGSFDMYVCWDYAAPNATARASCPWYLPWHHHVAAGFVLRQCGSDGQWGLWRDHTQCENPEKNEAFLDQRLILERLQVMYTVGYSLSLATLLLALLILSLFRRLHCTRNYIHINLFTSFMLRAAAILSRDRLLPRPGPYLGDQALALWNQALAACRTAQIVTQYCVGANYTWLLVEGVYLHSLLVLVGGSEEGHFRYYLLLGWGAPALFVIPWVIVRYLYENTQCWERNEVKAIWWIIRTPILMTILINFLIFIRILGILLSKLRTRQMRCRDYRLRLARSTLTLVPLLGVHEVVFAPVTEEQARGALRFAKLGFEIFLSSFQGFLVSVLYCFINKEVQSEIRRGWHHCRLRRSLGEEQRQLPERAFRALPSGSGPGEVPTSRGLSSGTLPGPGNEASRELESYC
Experimental: Two methods are used for the preparation of crude cell membranes.
Method 1: Frozen cell pellets are lysed on ice in hypotonic buffer containing 50 mM Tris HCl, pH 7.5, and Roche Complete™ Protease Inhibitors with EDTA. […] The homogenate is centrifuged at 4° C. at 1100 × g for 10 minutes. The supernatant is collected and stored on ice while the pellets are resuspended in homogenization buffer and rehomogenized as described above. The homogenate is centrifuged at 1100 × g for 10 minutes. The second supernatant is combined with the first supernatant and centrifuged at 35000 × g for 1 hour at 4° C. The resulting membrane pellet is resuspended in homogenization buffer containing protease inhibitors at approximately 1 to 3 mg/mL, quick frozen in liquid nitrogen and stored as aliquots in a -80° C. freezer until use.
The homogenate is centrifuged at 4° C. at 1800 × g for 15 minutes. The supernatant is collected and stored on ice while the pellets are resuspended in homogenization buffer (without DNAse I) and rehomogenized as described above. The homogenate is centrifuged at 1800 × g for 15 minutes. The second supernatant is combined with the first supernatant and centrifuged an additional time at 1800 × g for 15 minutes. The overall supernatant is then centrifuged at 25000 × g for 30 minutes at 4° C. The resulting membrane pellet is resuspended in homogenization buffer (without DNAse I) containing protease inhibitors at approximately 1 to 3 mg/mL and stored as aliquots in a -80° C. freezer until use.
The binding buffer contains 25 mM HEPES, pH 7.4, 2.5 mM CaCl2, 1 mM MgCl2, 0.1% (w/v) bacitracin, 0.003% (w/v) TWEEN®-20, and Roche Complete™ Protease Inhibitors without EDTA. Peptides and GIP are thawed and 3 fold serially diluted in 100% DMSO (10 point concentration response curves). […] Plates are sealed and mixed on a plate shaker (setting 6) for 1 minute and read with a PerkinElmer Trilux MicroBeta® scintillation counter after 2.5 to 12 hours of incubation/settling time at room temperature.
Raw CPM data for concentration curves of peptides, Gcg, GLP-1, or GIP are converted to percent inhibition by subtracting nonspecific binding (binding in the presence of excess unlabeled Gcg, GLP-1, or GIP, respectively) from the individual CPM values and dividing by the total binding signal, also corrected by subtracting nonspecific binding. Data are analyzed using four-parameter (curve maximum, curve minimum, IC50, Hill slope) nonlinear regression routines (Genedata Screener, version 12.0.4, Genedata AG, Basal, Switzerland). […] Values for Ki are reported as the geometric mean, with error expressed as the standard error of the mean (SEM) and n is equal to the number of independent replicates (determined in assays performed on different days). Geometric Means are calculated as follows: […]
The Ki Ratio (Ki for native control peptide/Ki for test compound) at each receptor and each species is calculated. The Ki Ratio is a rapid indication of the apparent affinity of a peptide compared to the native control peptide.
n=⅟x means that only one value out of the total number of replicates (x) is used to express the mean. SEM is only calculated when n=2 or greater non-qualified results exist. Means are expressed as GeoMetric means with the standard error of the mean (SEM) and the number of replicates (n) indicated in parenthesis.

[4] = target: T3, hGIPR (Homo sapiens, UniProt P48546); experiment: Functional cAMP formation (HTRF) in HEK-293 clonal cells expressing hGIPR, 0.1% bovine casein, without or with 1.0% human serum albumin; assay type: cell-based; details: for EC50: geometric mean, read-out: hGIPR EC50, nM (SEM, n); for Emax: read-out: hGIPR Emax, % ± SEM
T3 construct: expressed in transfected cells
T3 sequence (P48546 22-466): T2 sequence (P48546 22-466)
In short: as §1

[5] = 0.1% bovine casein and 1.0% human serum albumin, 37° C.
[6] = cAMP, incubated at 37° C., 0.1% bovine casein (no human serum albumin)
[7] = HEK293, 0.1% bovine casein and 1.0% human serum albumin, 37° C., percent of maximal response to GIP(1-42)NH2

T1 sequence (P47871 26-477): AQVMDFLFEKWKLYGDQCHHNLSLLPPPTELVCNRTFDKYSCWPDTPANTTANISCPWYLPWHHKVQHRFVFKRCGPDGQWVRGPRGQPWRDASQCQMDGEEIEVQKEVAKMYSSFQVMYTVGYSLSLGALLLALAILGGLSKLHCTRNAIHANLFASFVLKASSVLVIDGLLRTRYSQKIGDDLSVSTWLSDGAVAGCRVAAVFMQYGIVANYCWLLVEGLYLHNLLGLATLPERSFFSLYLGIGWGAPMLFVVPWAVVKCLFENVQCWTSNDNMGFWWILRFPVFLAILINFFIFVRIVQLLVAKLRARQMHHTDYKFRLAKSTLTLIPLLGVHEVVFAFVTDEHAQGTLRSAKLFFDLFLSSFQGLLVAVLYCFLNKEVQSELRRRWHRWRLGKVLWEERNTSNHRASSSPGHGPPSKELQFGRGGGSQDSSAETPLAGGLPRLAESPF
Sequence of hGLP-1R (P43220 24-463): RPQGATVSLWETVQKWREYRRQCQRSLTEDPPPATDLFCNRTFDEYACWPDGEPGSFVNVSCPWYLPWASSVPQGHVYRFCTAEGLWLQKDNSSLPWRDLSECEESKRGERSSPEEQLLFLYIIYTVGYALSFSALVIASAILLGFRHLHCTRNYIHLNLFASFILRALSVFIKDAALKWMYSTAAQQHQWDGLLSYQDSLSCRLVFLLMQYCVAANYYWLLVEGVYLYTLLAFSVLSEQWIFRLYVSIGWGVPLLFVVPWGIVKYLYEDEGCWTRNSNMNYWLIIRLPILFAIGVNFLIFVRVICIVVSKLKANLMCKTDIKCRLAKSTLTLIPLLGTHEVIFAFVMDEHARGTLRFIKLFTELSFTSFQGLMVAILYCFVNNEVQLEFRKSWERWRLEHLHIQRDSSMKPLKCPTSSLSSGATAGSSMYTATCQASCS

SMILES | EC50 [1, 5] [nM] | EC50 [1, 6] [nM] | EC50 [2] [nM] | Ki [3] [nM] | EC50 [4, 5] [nM] | Emax [4, 7] [%] | EC50 [4, 6] [nM] | Emax ([4]; HEK293, percent of maximal response to GIP(1-42)NH2, 37° C., 0.1% bovine casein, arithmetic mean) [%]
CCCCCCCCCCCCCC(=O)N[C@@H](CCC(=O)NCCOCCOCC(=O)NCCOCCOCC(=O)NCCCC[C@H](NC(=O)CNC(=O)CNC(=O)[C@H](CCC(=O)O)NC(=O)[C@@H](NC(=O)[C@H](CC(C)C)NC(=O)[C@](C)(Cc1ccc(O)cc1)NC(=O)[C@@H](CCC(=O)O)NC(=O)[C@@H](NC(=O)[C@H](Cc1ccccc1)NC(=O)[C@H](CCC(=O)O)NC(=O)C(C)(C)NC(=O)[C@H](CCC(N)=O)NC(=O)[C@H](C)NC(=O)[C@H](CCCCNC(=O)COCCOCCNC(=O)COCCOCCNC(=O)CC[C@H](NC(=O)CCCCCCCCCCCCC)C(=O)O)NC(=O)[C@H](CCCN)NC(=O)[C@H](CC(=O)O)NC(=O)[C@H](CC(C)C)NC(=O)[C@](C)(CC(C)C)NC(=O)[C@@H](NC(=O)[C@H](CO)NC(=O)[C@H](Cc1ccncc1)NC(=O)[C@H](CC(=O)O)NC(=O)[C@H](CO)NC(=O)[C@@H](NC(=O)[C@](C)(Cc1ccccc1F)NC(=O)[C@@H](NC(=O)CNC(=O)[C@H](CCC(=O)O)NC(=O)C(C)(C)NC(=O)[C@@H](N)Cc1ccc(O)cc1)[C@@H](C)O)[C@@H](C)O)[C@@H](C)CC)[C@@H](C)CC)[C@@H](C)CC)C(=O)N[C@@H](CO)C(=O)N[C@@H](CO)C(=O)NCC(=O)N[C@@H](C)C(=O)N1CCC[C@H]1C(=O)N1CCC[C@H]1C(=O)N1CCC[C@H]1C(=O)N[C@@H](CO)C(N)=O)C(=O)O [Example 8] | > 9950 | > 9950 | 8 | 0.024 | 0.635 | 91.3 ± 3.11 | – | –
CCCCCCCCCCCCCCCC(=O)N[C@@H](CCC(=O)NCCOCCOCC(=O)NCCOCCOCC(=O)NCCCC[C@H](NC(=O)[C@H](CO)NC(=O)[C@@H]1CCCN1C(=O)[C@@H]1CCCN1C(=O)[C@@H]1CCCN1C(=O)[C@H](C)NC(=O)CNC(=O)[C@H](CO)NC(=O)[C@H](CO)NC(=O)[C@@H]1CCCN1C(=O)CNC(=O)CNC(=O)[C@H](CCC(=O)O)NC(=O)[C@@H](NC(=O)[C@H](CC(C)C)NC(=O)[C@](C)(Cc1ccc(O)cc1)NC(=O)[C@@H](CCC(=O)O)NC(=O)[C@@H](NC(=O)[C@H](Cc1ccccc1)NC(=O)[C@H](CCC(=O)O)NC(=O)C(C)(C)NC(=O)[C@H](CCC(N)=O)NC(=O)[C@H](C)NC(=O)[C@H](CCCCNC(=O)COCCOCCNC(=O)COCCOCCNC(=O)CC[C@H](NC(=O)CCCCCCCCCCCCCCC)C(=O)O)NC(=O)[C@H](CCCN)NC(=O)[C@H](CC(=O)O)NC(=O)[C@H](CC(C)C)NC(=O)[C@](C)(CC(C)C)NC(=O)[C@@H](NC(=O)[C@H](CO)NC(=O)[C@H](Cc1ccncc1)NC(=O)[C@H](CC(=O)O)NC(=O)[C@H](CO)NC(=O)[C@@H](NC(=O)[C@](C)(Cc1ccccc1F)NC(=O)[C@@H](NC(=O)CNC(=O)[C@H](CCC(=O)O)NC(=O)C(C)(C)NC(=O)[C@@H](N)Cc1ccc(O)cc1)[C@@H](C)O)[C@@H](C)O)[C@@H](C)CC)[C@@H](C)CC)[C@@H](C)CC)C(N)=O)C(=O)O [Example 25] | > 9950 | > 9950 | 1.11 | 0.0293 | 0.274 | 94.3 ± 1.73 | – | –
CCCCCCCCCCCCCCCC(=O)N[C@@H](CCC(=O)NCCOCCOCC(=O)NCCOCCOCC(=O)NCCCC[C@H](NC(=O)CNC(=O)CNC(=O)[C@H](CCCCNC(=O)COCCOCCNC(=O)COCCOCCNC(=O)CC[C@H](NC(=O)CCCCCCCCCCCCCCC)C(=O)O)NC(=O)[C@@H](NC(=O)[C@H](CC(C)C)NC(=O)[C@](C)(Cc1ccc(O)cc1)NC(=O)[C@@H](CCC(=O)O)NC(=O)[C@@H](NC(=O)[C@H](Cc1ccccc1)NC(=O)[C@H](CCC(=O)O)NC(=O)C(C)(C)NC(=O)[C@H](CCC(N)=O)NC(=O)[C@H](C)NC(=O)[C@@H](NC(=O)[C@H](CCCN)NC(=O)[C@H](CC(=O)O)NC(=O)[C@H](CC(C)C)NC(=O)[C@](C)(CC(C)C)NC(=O)[C@@H](NC(=O)[C@H](CO)NC(=O)[C@H](Cc1ccncc1)NC(=O)[C@H](CC(=O)O)NC(=O)[C@H](CO)NC(=O)[C@@H](NC(=O)[C@](C)(Cc1ccccc1F)NC(=O)[C@@H](NC(=O)CNC(=O)[C@H](CCC(=O)O)NC(=O)C(C)(C)NC(=O)[C@@H](N)Cc1ccc(O)cc1)[C@@H](C)O)[C@@H](C)O)[C@@H](C)CC)[C@@H](C)CC)[C@@H](C)CC)[C@@H](C)CC)C(=O)N[C@@H](CO)C(=O)N[C@@H](CO)C(=O)NCC(=O)N[C@@H](C)C(=O)N1CCC[C@H]1C(=O)N1CCC[C@H]1C(=O)N1CCC[C@H]1C(=O)N[C@@H](CO)C(N)=O)C(=O)O [Example 26] | > 9950 | > 9950 | 3.93 | 0.0863 | 1.2 | 95.4 ± 2.54 | 0.0218 | –
CC[C@H](C)[C@H](NC(=O)[C@H](CC(C)C)NC(=O)[C@](C)(Cc1ccc(O)cc1)NC(=O)[C@@H](CCC(=O)O)NC(=O)[C@@H](NC(=O)[C@H](Cc1ccccc1)NC(=O)[C@H](CCC(=O)O)NC(=O)C(C)(C)NC(=O)[C@H](CCC(N)=O)NC(=O)[C@H](C)NC(=O)[C@H](CCCCNC(=O)[C@@H](N)CCCCNC(=O)COCCOCCNC(=O)CC[C@H](NC(=O)CCCCCCCCCCCCC(=O)O)C(=O)O)NC(=O)[C@H](CCCN)NC(=O)[C@H](CC(=O)O)NC(=O)[C@H](CC(C)C)NC(=O)[C@](C)(CC(C)C)NC(=O)[C@@H](NC(=O)[C@H](CO)NC(=O)[C@H](Cc1ccncc1)NC(=O)[C@H](CC(=O)O)NC(=O)[C@H](CO)NC(=O)[C@@H](NC(=O)[C@](C)(Cc1ccccc1F)NC(=O)[C@@H](NC(=O)CNC(=O)[C@H](CCC(=O)O)NC(=O)C(C)(C)NC(=O)[C@@H](N)Cc1ccc(O)cc1)[C@@H](C)O)[C@@H](C)O)[C@@H](C)CC)[C@@H](C)CC)C(=O)N[C@@H](CCC(=O)O)C(=O)NCC(=O)NCC(=O)N[C@@H](CCCCNC(=O)[C@@H](N)CCCCNC(=O)COCCOCCNC(=O)CC[C@H](NC(=O)CCCCCCCCCCCCC(=O)O)C(=O)O)C(=O)N[C@@H](CO)C(=O)N[C@@H](CO)C(=O)NCC(=O)N[C@@H](C)C(=O)N1CCC[C@H]1C(=O)N1CCC[C@H]1C(=O)N1CCC[C@H]1C(=O)N[C@@H](CO)C(N)=O [Example 36] | > 9950 | > 9950 | 10.9 | 0.103 | 0.408 | 91.4 ± 0.667 | 0.0185 | 95.4 ± 2.02

— patent US20230265151A1, “GIP/GLP1 CO-AGONIST COMPOUNDS” (priority 2020, published 2023)
